Measurements taken from patent US4482559A, “4-Phenyl-4,5,6,7-tetrahydro-thieno [2,3-c]pyridines, compositions and use” (Boehringer Ingelheim KG, priority 1982, dated 1984).
Like-named read-outs stand apart in the source and are kept apart here.

Tests used:
[1] = system: hypothermic effect caused by reserpine; assay: reserpine antagonism (reversal of the hypothermic effect caused by reserpine) in mice; type: in vivo; details: Mus musculus, oral, reserpine 2 mg/kg i.p. 17 hours before
Procedure: The test used for determining antidepressant properties was reserpine antagonism, namely the reversal of the hypothermic effect caused by reserpine. This test was carried out on mice, using five animals per dose. 17 hours after the intraperitoneal administration of 2 mg/kg of reserpine, the peripheral body temperature was measured at an ambient temperature of 19° C. Then, the test compound was administered by the oral route, and the body temperature was measured after 1, 3, 5 and 7 hours had elapsed. A median effective dose (ED50) was determined for each period of measurement. This is the dose at which the body temperature of the animals treated with reserpine is brought closer to the normal temperature of the untreated control animals by 50%.

[2] = LD50 in the mouse by oral route; details: in vivo
[3] = 1 hour, read-out: Reserpine antagonism, median effective dose (ED50) after 1 hr
[4] = 3 hours, read-out: Reserpine antagonism, median effective dose (ED50) after 3 hrs
[5] = 5 hours, read-out: Reserpine antagonism, median effective dose (ED50) after 5 hrs
[6] = 7 hours, read-out: Reserpine antagonism, median effective dose (ED50) after 7 hrs

Cc1ccc(C2CN(C)Cc3sc(CO)cc32)cc1 (stereo not drawn) [2-(Hydroxy-methyl)-6-methyl-4-p-tolyl-4,5,6,7-tetrahydrothieno[2,3-c]pyridine]
ED50 [1, 3]: 2.5 mg/kg | ED50 [1, 4]: 0.24 mg/kg | ED50 [1, 5]: 2.5 mg/kg | ED50 [1, 6]: > 10 mg/kg | LD50 [2]: ~740 mg/kg

CN1Cc2sc(CN3CCOCC3)cc2C(c2ccc(Br)cc2)C1 (stereo not drawn) [2-(Morpholino-methyl)-4-(p-bromo-phenyl)-6-methyl-4,5,6,7-tetrahydro-thieno[2,3-c]pyridine]
ED50 [1, 3]: 22 mg/kg | ED50 [1, 4]: 1.7 mg/kg | ED50 [1, 5]: 1.7 mg/kg | ED50 [1, 6]: 10 mg/kg | LD50 [2]: > 640 mg/kg

CN1Cc2sc(CN3CCOCC3)cc2C(c2ccc(Cl)cc2)C1 (stereo not drawn) [2-(Morpholino-methyl)-4-(p-chloro-phenyl)-6-methyl-4,5,6,7-tetrahydro-thieno[2,3-c]pyridine]
ED50 [1, 3]: > 40 mg/kg | ED50 [1, 4]: 2.6 mg/kg | ED50 [1, 5]: 12 mg/kg | ED50 [1, 6]: 2.5 mg/kg | LD50 [2]: > 640 mg/kg
